# Measured values reported in BindingDB's records for doi:10.7270/Q24F1P57 (Nmmlsc, 2009).
# Molecular target: Induced myeloid leukemia cell differentiation protein Mcl-1 (Homo sapiens, UniProt Q07820)
# Assay: Mcl-1/Bim interaction regulators – biochemical, bead-based flow cytometry, multiplex, HTS hits, confirmation (AID 2086)
# Conditions: not given
# Chain of Induced myeloid leukemia cell differentiation protein Mcl-1 (Q07820 whole entry): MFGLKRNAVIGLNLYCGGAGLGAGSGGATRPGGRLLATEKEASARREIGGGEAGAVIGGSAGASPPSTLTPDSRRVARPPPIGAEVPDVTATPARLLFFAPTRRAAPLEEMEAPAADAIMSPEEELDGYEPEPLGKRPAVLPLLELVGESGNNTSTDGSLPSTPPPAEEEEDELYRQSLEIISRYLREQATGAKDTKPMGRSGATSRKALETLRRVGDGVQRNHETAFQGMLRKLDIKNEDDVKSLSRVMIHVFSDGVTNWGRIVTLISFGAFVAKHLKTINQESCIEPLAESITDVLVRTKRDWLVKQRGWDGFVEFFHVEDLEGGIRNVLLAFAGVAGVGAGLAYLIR
row,Structure (SMILES),EC50 [µM]
1,Cc1ccc(C=NNC(=O)CSc2nnc(-c3ccc(Cl)cc3)n2-c2ccccc2)o1 [SMR000218122],7.75

# Same assay, conditions: inactive by the depositor's call
row,Structure (SMILES),EC50 [µM]
1,"O=C(NCc1ccccc1)c1ccc2nc(-c3ccco3)c(-c3ccco3)nc2c1 [2,3-bis(furan-2-yl)-N-(phenylmethyl)quinoxaline-6-carboxamide]",16
2,"COc1ccc(N2C(=O)C(Cl)=C(Oc3cccc(OC)c3)C2=O)cc1 [3-chloro-4-(3-methoxyphenoxy)-1-(4-methoxyphenyl)-1H-pyrrole-2,5-dione]",1.65
3,"CNC1CCC(Br)CC(C(=O)C=Cc2cccc(OC)c2OC)C1=O (centres undefined) [4-bromo-2-[(E)-3-(2,3-dimethoxyphenyl)-1-oxoprop-2-enyl]-7-(methylamino)-1-cycloheptanone]",37.4
4,"COc1cc(/N=C2\SSNC2Cl)c(OC)cc1Cl (centres undefined) [4-chloro-N-(4-chloro-2,5-dimethoxyphenyl)-5-dithiazolidinimine]",21.5
5,"Cc1ccc(-c2nc3c(c(=O)[nH]c(=O)n3Cc3ccccc3)n2C)o1 [7-methyl-8-(5-methyl-2-furanyl)-3-(phenylmethyl)purine-2,6-dione]",34.2
6,O=C1NC(=O)C2(Cc3c(nc4ccccn4c3=O)N3CCCCCC32)C(=O)N1Cc1ccccc1 (centres undefined) [MLS000083668],3.18
7,"COc1ccc(CCNC(=O)c2ccc3nc(-c4ccco4)c(-c4ccco4)nc3c2)cc1OC [N-[2-(3,4-dimethoxyphenyl)ethyl]-2,3-di-2-furylquinoxaline-6-carboxamide]",14.8
8,Cc1cc2nn(-c3cccc4ccccc34)nc2cc1N [SMR000076237],2.25
